Experiments:
[1] = target: T1, human α1b adrenergic receptor (Homo sapiens, UniProt P35368); test: Radioligand binding ([3H]prazosin) at cloned human α1b adrenergic receptor; conditions: LM(tk-) cell membranes, read-out: Binding affinities (pKi) α1b (converted)
T1 construct: The entire coding region of α1b (1563 bp); expressed in transfected cells
T1 sequence (P35368 1-520): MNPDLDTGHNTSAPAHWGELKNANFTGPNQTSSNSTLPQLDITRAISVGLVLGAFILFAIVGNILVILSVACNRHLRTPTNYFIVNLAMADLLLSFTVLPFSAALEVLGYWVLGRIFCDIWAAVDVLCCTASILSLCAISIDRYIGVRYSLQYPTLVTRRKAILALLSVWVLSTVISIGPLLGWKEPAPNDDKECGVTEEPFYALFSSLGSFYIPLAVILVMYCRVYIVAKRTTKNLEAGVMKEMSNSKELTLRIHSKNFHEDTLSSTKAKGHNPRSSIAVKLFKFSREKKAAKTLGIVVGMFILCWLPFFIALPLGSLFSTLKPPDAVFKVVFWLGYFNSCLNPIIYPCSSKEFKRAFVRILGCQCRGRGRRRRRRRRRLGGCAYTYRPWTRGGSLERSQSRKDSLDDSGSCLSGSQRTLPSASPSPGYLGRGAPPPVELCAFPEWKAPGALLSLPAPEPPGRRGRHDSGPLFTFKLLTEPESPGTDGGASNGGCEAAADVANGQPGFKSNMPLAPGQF
Protocol: (§1) First, conditions were determined which allowed measurement of the specific binding of a compound known to bind to the receptor. Then, the binding of the known compound to the receptor in membrane preparations was evaluated in the presence of several different concentrations of the test compound.
(§2) These cell lines were prepared by transfecting the cloned cDNA or cloned genomic DNA or constructs containing both genomic DNA and cDNA encoding the human receptors as described below.
α1b Human Adrenergic Receptor: The entire coding region of α1b (1563 bp), including 200 base pairs of 5′ untranslated sequence (5′ UT) and 600 bp of 3′ untranslated sequence (3′ UT), was cloned into the EcoRI site of pCEXV-3 eukaryotic expression vector. The construct involved ligating the full-length EcoRI brainstem cDNA fragment from λ ZapII into the expression vector. Stable cell lines were selected as described above. Membranes were harvested and assayed for their ability to bind [^3H]prazosin as described below (see Radioligand Binding assays). The cell line used herein was designated L-α1B and was deposited with the American Type Culture Collection, 12301 Parklawn Drive, Rockville, Md. 20852, U.S.A. under the provisions of the Budapest Treaty for the International Recognition of the Deposit of Microorganisms for the Purposes of Patent Procedure. The cell line L-α1B was accorded ATCC Accession No. CR 11139, on Sep. 29, 1992.
(§3) Radioligand Binding Assays for α1 Human Adrenergic Receptors: Transfected cells from culture flasks were scraped into 5 ml of 5 mM Tris-HCl, 5 mM EDTA, pH 7.5, and lysed by sonication. The cell lysates were centrifuged at 1000 rpm for 5 min at 4° C., and the supernatant was centrifuged at 30,000×g for 20 min at 4° C. The pellet was suspended in 50 mM Tris-HCl, 1 mM MgCl2, and 0.1% ascorbic acid at pH 7.5. Binding of the α1, antagonist [^3H]prazosin (0.5 nM, specific activity 76.2 Ci/mmol) to membrane preparations of LM(tk-) cells was done in a final volume of 0.25 ml and incubated at 37° C. for 1 hour. Nonspecific binding was determined in the presence of 10 μM phentolamine. The reaction was stopped by filtration through GF/B filters using a cell harvester.

[2] = target: T2, human α1a adrenergic receptor (Homo sapiens, UniProt P35348); test: Radioligand binding ([3H]prazosin) at cloned human α1a adrenergic receptor; conditions: LM(tk-) cell membranes, read-out: Binding affinities (pKi) α1a (converted)
T2 construct: The entire coding region of α1a (1401 bp); expressed in transfected cells
T2 sequence (P35348 1-466): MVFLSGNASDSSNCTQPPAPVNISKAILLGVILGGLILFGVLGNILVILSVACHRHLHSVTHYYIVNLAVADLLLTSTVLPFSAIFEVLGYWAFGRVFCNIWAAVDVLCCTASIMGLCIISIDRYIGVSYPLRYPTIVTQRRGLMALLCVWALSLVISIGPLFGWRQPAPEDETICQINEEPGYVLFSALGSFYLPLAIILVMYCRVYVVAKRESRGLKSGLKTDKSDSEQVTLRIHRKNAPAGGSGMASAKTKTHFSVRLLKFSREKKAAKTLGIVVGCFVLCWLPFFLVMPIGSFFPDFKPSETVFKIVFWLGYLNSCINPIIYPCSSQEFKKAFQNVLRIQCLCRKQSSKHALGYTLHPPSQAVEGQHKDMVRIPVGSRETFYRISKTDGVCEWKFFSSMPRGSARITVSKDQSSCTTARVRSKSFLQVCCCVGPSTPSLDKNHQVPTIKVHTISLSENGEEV
Protocol: as §1, §2
The construct involved ligating three partial overlapping fragments: a 5′0.6 kb HincII genomic clone, a central 1.8 EcoRI hippocampal cDNA clone, and a 3′0.6 Kb PstI genomic clone. The hippocampal cDNA fragment overlaps with the 5′ and 3′ genomic clones so that the HincII and PstI sites at the 5′ and 3′ ends of the cDNA clone, respectively, were utilized for ligation. This full-length clone was cloned into the KpnI site of the expression vector, using the 5′ and 3′ KpnI sites of the fragment, derived from vector (i.e., pBluescript) and 3′-untranslated sequences, respectively. Stable cell lines were selected as described above. Membranes were harvested and assayed for their ability to bind [^3H]prazosin as described below (see Radioligand Binding assays).
as §3

Ki [1] [µM] | Ki [2] [µM] | SMILES
0.0631 | 0.0794 | COc1ccc(F)cc1C1CCN(CCN2C(=O)CC3(CCCC3)CC2=O)CC1 [Compound 12, 8-{2-[4-(5-Fluoro-2-methoxyphenyl)piperidin-1-yl]ethyl}-8-azaspiro[4.5]decane-7,9-dione]
3.16 | 7.94 | Cc1ccc(Cl)cc1N1CCN(CCN2C(=O)CC3(CCCC3)CC2=O)CC1 [Compound 13, 8-{2-[4-(5-Chloro-2-methylphenyl)piperazino]ethyl}-8-azaspiro [4.5]decane-7,9-dione]
0.126 | 3.16 | O=C1CC2(CCCC2)CC(=O)N1CCN1CCN(c2c(F)cccc2F)CC1 [Compound 14, 8-{2-[4-(2,6-Difluorophenyl)piperazino]ethyl}-8-azaspiro[4.5]decane-7,9-dione]
1.58 | 3.98 | O=C1CC2(CCCC2)CC(=O)N1CCN1CCN(c2ccc(F)c(F)c2)CC1 [Compound 15, 8-{2-[4-(3,4-Difluorophenyl)piperazin-1-yl]ethyl}-8-azaspiro[4.5]decane-7,9-dione]

Continued, molecule first:

SMILES | Ki [1] [µM] | Ki [2] [µM]
O=C1CC2(CCCC2)CC(=O)N1CCN1CCN(c2cc(F)ccc2F)CC1 [Compound 6, 8-{2-[4-(2,5-Difluorophenyl)piperazin-1-yl]ethyl}-8-azaspiro[4.5]decane-7,9-dione] | 0.0501 | –
O=C1CC2(CCCC2)CC(=O)N1CCN1CCN(c2cc(F)c(F)cc2F)CC1 [Compound 7, 8-{2-[4-(2,4,5-Trifluorophenyl)piperazin-1-yl]ethyl}-8-azaspiro[4.5]decane-7,9-dione] | 0.398 | 3.98
C[C@H](CN1CCN(c2cc(F)ccc2F)CC1)N1C(=O)CC2(CCCC2)CC1=O [Compound 8, 8-{(1R)-2-[4-(2,5-Difluorophenyl)piperazin-1-yl]-1-methylethyl}-8-azaspiro[4.5]decane-7,9-dione] | 0.0631 | 6.31
C[C@@H](CN1CCN(c2cc(F)ccc2F)CC1)N1C(=O)CC2(CCCC2)CC1=O [Compound 10, 8-{(1S)-2-[4-(2,5-Difluorophenyl)piperazin-1-yl]-1-methylethyl}-8-azaspiro[4.5]decane-7,9-dione] | 3.98 | 7.94

Source: US6706716B2, “Compounds specific for the human α1d adrenergic receptor and uses thereof” (Synaptic Pharmaceutical Corporation, priority 1998, dated 2004)
